28 compounds from patent US20070043104A1, “UII-modulating compounds and their use” (priority 2005, published 2007) can be followed below.

For this test, the target named is T1, human urotensin II receptor (Homo sapiens, UniProt Q9UKP6).
T1 construct: expressed in transfected cells; host or cells: NIH3T3 cells
T1 sequence (Q9UKP6 1-389): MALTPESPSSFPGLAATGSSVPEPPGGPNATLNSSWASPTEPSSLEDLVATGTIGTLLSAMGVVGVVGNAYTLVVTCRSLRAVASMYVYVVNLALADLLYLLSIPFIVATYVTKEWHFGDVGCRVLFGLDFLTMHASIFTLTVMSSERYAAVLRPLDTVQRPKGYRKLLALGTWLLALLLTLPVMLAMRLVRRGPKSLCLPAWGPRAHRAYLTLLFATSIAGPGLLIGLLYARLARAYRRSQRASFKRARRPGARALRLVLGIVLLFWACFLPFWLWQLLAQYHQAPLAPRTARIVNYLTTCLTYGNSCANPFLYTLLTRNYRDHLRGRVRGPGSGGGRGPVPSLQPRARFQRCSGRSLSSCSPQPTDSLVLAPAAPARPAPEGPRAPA
As to the kind of experiment: Receptor Selection and Amplification (R-SAT) functional assay, NIH3T3 cells transfected with human urotensin II receptor and β-galactosidase marker. It is filed as cell-based. To be noted: for pEC50 / EC50: eight doses in triplicate. The procedure:
The functional receptor assay, Receptor Selection and Amplification Technology (R-SAT™), was used (with minor modifications from the procedure described previously (Brann, M. R. U.S. Pat. No. 5,707,798, 1998; Chem. Abstr. 1998, 128, 111548) to screen compounds for efficacy at the UII receptor. The RSAT assay was conducted as described herein.
Briefly, NIH3T3 cells were grown in tissue culture treated rollerbottles to 40-80% confluence in Dulbecco's modified Eagle's medium (DMEM) supplemented with 10% bovine calf serum (Hyclone) and 1% penicillin/streptomycin/glutamine (Invitrogen). Cells were transfected for 12-18 hours with the human urotensin II receptor and the β-galactosidase marker. After transfection, the cells were trypsinized, harvested and frozen in DMEM containing 10% DMSO. Frozen cells were later thawed and tested for a response to a control compound to perform quality control before initiation of pharmacological testing, ensuring the correct pharmacological response and sufficient sensitivity. To initiate the pharmacological assay, cells were thawed rapidly and prepared in DMEM media containing 0.4% calf serum (Hyclone), 30% UltraCulture (Biowhittaker), and 1% penicillin/streptomycin/glutamine (Invitrogen), and then plated at 10,000-40,000 cells per well of a 96½ area plate that contained either the test compounds or reference ligands. Cells were then grown in a humidified atmosphere with 5% ambient CO2 for five days. Media was then removed from the plates and marker gene activity was measured by the addition of the beta-galactosidase substrate ONPG (in PBS with 5% NP-40). The resulting colorimetric reaction was measured in a spectrophotometric plate reader (Titertek Inc.) at […].
pEC50 represents the negative logarithm of the concentration of ligand that caused 50% activation of the basal receptor response. Percent activation was calculated as the difference between the absorbance measurements in the absence of added ligand compared with that in the presence of saturating concentrations of ligand normalized to the absorbance difference for the reference ligand, which was assigned a value of 100%.
Results were determined in R-SAT assays and are expressed as pEC50, the negative of the log EC50 in molarity. Results are the average±standard deviation of 2-X determinations of the EC50 where each compound was tested in eight doses in triplicate.

The mark [1] stands for this setting: NIH3T3, Table 3, percent activation normalized to the reference ligand assigned 100%, read-out: Efficacy.
[2] abbreviates: Table 3, negative of the log EC50 in molarity, average ± standard deviation (or range) of determinations.

Where a name gives a salt, the structure may show the parent alone. Read-outs that look alike come from different tables or passages of the source.

In general, pEC50 refers to the negative decadic logarithm of the EC50, by convention in mol/L. The low end stands for a large EC50, the high end for a small EC50. For the compound `Cc1ccc(C)c(C(=O)NC(CCN(C)C)c2ccc(Cl)cc2)c1.O=C(O)C(=O)O` (centres unmarked) [5j, N-[1-(4-Chlorophenyl)-3-dimethylamino-propyl]-2,5-dimethyl-benzamide oxalate], the Emax under setting [1] worked out at 164 ± 20%. The compound further had a pEC50 under setting [2] of 5.54 ± 0.04.
For `Cc1cccc(Cl)c1C(=O)NC(CCN(C)C)c1ccc(Cl)cc1.O=C(O)C(=O)O` (centres unmarked) [5k, N-[1-(4-Chlorophenyl)-3-dimethylamino-propyl]-6-chloro-2-methyl-benzamide oxalate] the same measures were 105 ± 4% and 5.29 ± 0.09.
`CN(C)CCC(NC(=O)c1ccc2c(c1)OCO2)c1ccc(Cl)cc1.O=C(O)C(=O)O` (centres unmarked) [5l, N-(1-(4-chlorophenyl)-3-(dimethylamino)propyl)benzo [d][1,3]dioxole-5-carboxamide oxalate]: under setting [1], the Emax turned out to be 148 ± 32%. Under setting [2], this compound came in with a negative-log EC50 (pEC50) of 5.67 ± 0.17.
Take `Cc1cc(C)c(C(=O)NC(CCN(C)C)c2ccc(Cl)cc2)cc1C.O=C(O)C(=O)O` (centres unmarked) [5m, N-[1-(4-Chlorophenyl)-3-dimethylaminopropyl]-2,4,5-trimethyl-benzamide oxalate]: the Emax under setting [1] was 152 ± 20%. Further, under setting [2], the pEC50 came to 5.75 ± 0.22.
The EC50 is the concentration that produces a half-maximal response. Lower therefore signals an effect from little substance. Take `CN(C)CCC(NC(=O)c1ccc2ccccc2c1)c1ccc(Cl)cc1` (centres unmarked) [5n, N-[1-(4-Chlorophenyl)-3-dimethylamino-propyl]-2-naphthyl-carboxamide oxalate]: the Emax under setting [1] is 109 ± 18%. In addition, under setting [2], the EC50 was 407 nM.
As for `CN(C)CCC(NC(=O)c1ccc(-c2ccccc2)cc1)c1ccc(Cl)cc1.O=C(O)C(=O)O` (centres unmarked) [5o, N-[1-(4-Chlorophenyl)-3-dimethylamino-propyl]-4-phenyl-benzamide oxalate], the Emax under setting [1] is 116 ± 11%. This compound returned a negative-log EC50 (pEC50) under setting [2] of 7.11 ± 0.01.
On to `CN(C)CCC(NC(=O)c1ccc(Oc2ccccc2)cc1)c1ccc(Cl)cc1.O=C(O)C(=O)O` (centres unmarked) [5p, N-[1-(4-Chlorophenyl)-3-dimethylaminopropyl]-4-phenoxy-benzamide oxalate], for which the Emax under setting [1] amounted to 91 ± 17%. Also, the negative-log EC50 (pEC50) under setting [2] is listed as 7.18 ± 0.2.
For `CN(C)CCC(NC(=O)c1ccc(C(F)(F)F)cc1)c1ccc(Cl)cc1` (centres unmarked) [5q, N-[1-(4-Chlorophenyl)-3-dimethylaminopropyl]-4-trifluoromethyl-benzamide oxalate], the Emax under setting [1] fell in the range of 100 to 127%. The same compound showed a concentration giving a half-maximal response (EC50) under setting [2] of 66.1 to 102 nM.
For the compound `CN(C)CCC(NC(=O)Cc1ccccc1)c1ccc(Cl)cc1.O=C(O)C(=O)O` (centres unmarked) [5r, N-[1-(4-Chlorophenyl)-3-dimethylaminopropyl]-2-phenyl-acetamide oxalate], the Emax under setting [1] stood at 154 ± 34%. The same compound returned a pEC50 under setting [2] of 5.71 ± 0.16.
For `Cc1ccc(S(=O)(=O)NC(CCN(C)C)c2ccc(Cl)cc2)cc1.O=C(O)C(=O)O` (centres unmarked) [6a, N-[1-(4-Chlorophenyl)-3-dimethylaminopropyl]-4-methyl-benzenesulfonamide oxalate] the same measures were 74 ± 10% and 5.19 ± 0.09.
Consider `Cc1ccccc1NC(=O)OC(CCN(C)C)c1ccc(Cl)cc1` (centres unmarked) [7a, N-[1-(4-Chlorophenyl)-3-dimethylaminopropyloxycarbonyl]-2-methylphenyl-amine], for which, under setting [1], the Emax is 170 ± 21%. Moreover, the negative logarithm of the EC50 (pEC50) under setting [2] is given as 5.41 ± 0.07.
Regarding `COc1cccc(NC(=O)OC(CCN(C)C)c2ccc(Cl)cc2)c1` (centres unmarked) [7b, N-[1-(4-Chlorophenyl)-3-dimethylaminopropyloxycarbonyl]-3-methoxyphenyl-amine], the Emax under setting [1] turned out to be 133 ± 36%. Moreover, the pEC50 under setting [2] is 5.95 ± 0.09.
Turning to `CN(C)CCC(OC(=O)Nc1ccc(C(C)(C)C)cc1)c1ccc(Cl)cc1` (centres unmarked) [7c, N-[1-(4-Chlorophenyl)-3-dimethylaminopropyloxycarbonyl]-4-tert-butylphenyl-amine], the Emax under setting [1] was found to be 105 ± 8%. Besides, the concentration giving a half-maximal response (EC50) under setting [2] is 1780 nM.
Consider `CN(C)CCC(OC(=O)Nc1ccc(Oc2ccccc2)cc1)c1ccc(Cl)cc1` (centres unmarked) [7d, N-[1-(4-Chlorophenyl)-3-dimethylaminopropyloxycarbonyl]-4-phenoxyphenyl-amine], for which the Emax under setting [1] was 96%. This compound gave an EC50 under setting [2] of 126 nM.
`CN(C)CCC(OC(=O)NCc1ccccc1)c1ccc(Cl)cc1` (centres unmarked) [7e, N-[1-(4-Chlorophenyl)-3-dimethylaminopropyloxycarbonyl]-benzyl-amine]: under setting [1], the Emax stood at 180 ± 8%. For the same compound, the pEC50 under setting [2] worked out at 5.67 ± 0.11.
As to `CN(C)CCC(OC(=O)Nc1ccc2ccccc2c1)c1ccc(Cl)cc1` (centres unmarked) [7g, N-[1-(4-Chlorophenyl)-3-dimethylaminopropyloxycarbonyl]-2-naphthyl-amine], under setting [1], the Emax is 74 to 107%. The compound further gave an EC50 under setting [2] of 263 to 759 nM.
For the compound `COc1ccc(NC(=O)OC(CCN(C)C)c2ccc(Cl)cc2)cc1` (centres unmarked) [7h, N-[1-(4-Chlorophenyl)-3-dimethylaminopropyloxycarbonyl]-4-methoxyphenyl-amine], the Emax under setting [1] was in the range of 130 to 223%. Further, under setting [2], the concentration for a half-maximal effect (EC50) is 955 to 2450 nM.
As to `CN(C)CCC(OC(=O)Nc1ccc(C(F)(F)F)cc1)c1ccc(Cl)cc1` (centres unmarked) [7i, N-[1-(4-Chlorophenyl)-3-dimethylaminopropyloxycarbonyl]-4-trifluoromethylphenyl-amine], the Emax under setting [1] was in the range of 70 to 114%. This compound also had a concentration for a half-maximal effect (EC50) under setting [2] of 178 to 309 nM.
As for `Cc1ccccc1NC(=O)NC(CCN(C)C)c1ccc(Cl)cc1` (centres unmarked) [8a, 1-[1-(4-Chlorophenyl)-3-dimethylaminopropyl]-3-(2-methylphenyl)-carbamide oxalate], under setting [1], the Emax came out at 166 ± 24%. The compound also showed a negative logarithm of the EC50 (pEC50) under setting [2] of 5.64 ± 0.15.
As for `COc1cccc(NC(=O)NC(CCN(C)C)c2ccc(Cl)cc2)c1` (centres unmarked) [8b, 1-[1-(4-Chlorophenyl)-3-dimethylaminopropyl]-3-(3-methoxyphenyl)-carbamide oxalate], the Emax under setting [1] stood at 147 ± 26%. Moreover, under setting [2], the pEC50 is reported as 5.87 ± 0.17.
Turning to `CN(C)CCC(NC(=O)Nc1ccc(C(C)(C)C)cc1)c1ccc(Cl)cc1` (centres unmarked) [8c, 1-[1-(4-Chlorophenyl)-3-dimethylaminopropyl]-3-(4-tert-butylphenyl)-carbamide oxalate], under setting [1], the Emax is 101 ± 36%. The response under setting [2] was half-maximal at 186 nM (EC50).
Turning to `CN(C)CCC(NC(=O)Nc1ccc(Oc2ccccc2)cc1)c1ccc(Cl)cc1` (centres unmarked) [8d, 1-[1-(4-Chlorophenyl)-3-dimethylaminopropyl]-3-(4-phenoxyphenyl)-carbamide oxalate oxalate], under setting [1], the Emax lay in the range of 102 to 119%. This compound also had an EC50 under setting [2] of 63.1 to 145 nM.
For `CN(C)CCC(NC(=O)NCc1ccccc1)c1ccc(Cl)cc1` (centres unmarked) [8e, 1-[1-(4-Chlorophenyl)-3-dimethylaminopropyl]-3-benzyl-carbamide oxalate] the same measures were 166 to 193% and 1780 to 2290 nM.
As for `CN(C)CCC(NC(=O)Nc1ccc(-c2ccccc2)cc1)c1ccc(Cl)cc1` (centres unmarked) [8f, 1-[1-(4-Chlorophenyl)-3-dimethylaminopropyl]-3-(4-phenylphenyl)-carbamide oxalate], the Emax under setting [1] was in the range of 75 to 111%. Also, the 50% effective concentration (EC50) under setting [2] is 110 to 178 nM.
Regarding `CN(C)CCC(NC(=O)Nc1ccc2ccccc2c1)c1ccc(Cl)cc1` (centres unmarked) [8g, 1-[1-(4-Chlorophenyl)-3-dimethylaminopropyl]-3-(2-naphthyl)-carbamide oxalate], the Emax under setting [1] lay in the range of 89 to 129%. Under setting [2], this compound had an EC50 of 229 to 380 nM.
Consider `COc1ccc(NC(=O)NC(CCN(C)C)c2ccc(Cl)cc2)cc1` (centres unmarked) [8h, 1-[1-(4-Chlorophenyl)-3-dimethylaminopropyl]-3-(4-methoxyphenyl)-carbamide oxalate], for which the Emax under setting [1] lay within 176 to 231%. Under setting [2], this compound showed an EC50 of 1820 to 2340 nM.
For `CN(C)CCC(NC(=O)Nc1ccc(C(F)(F)F)cc1)c1ccc(Cl)cc1` (centres unmarked) [8i, 1-[1-(4-Chlorophenyl)-3-dimethylaminopropyl]-3-(4-trifluoromethylphenyl)-carbamide oxalate] the same measures were 93 to 120% and 97.7 to 155 nM.
`CN(C)CCC(NC(=O)Cc1ccccc1)c1ccc(Cl)cc1` (centres unmarked) [A1, N-[1-(4-Chlorophenyl)-3-dimethylamino-propyl]-2-phenylacetamide HCl] registered an Emax (NIH3T3, Table 4, % efficacy normalized to UII at 100%) of 76 ± 5%. For the same compound, where the note is “Table 4, negative of the log EC50 in molarity, average ± standard deviation of 2-5 determinations”, the concentration for a half-maximal effect (EC50) was 1860 nM.
